Test results: ChEMBL document CHEMBL3739345, “Design and synthesis of potent and selective inhibitors of BRD7 and BRD9 bromodomains” (Medchemcomm, 2015)

Target: T1, Bromodomain-containing protein 9 (Homo sapiens, UniProt Q9H8M2)
T1 sequence (Q9H8M2 whole entry): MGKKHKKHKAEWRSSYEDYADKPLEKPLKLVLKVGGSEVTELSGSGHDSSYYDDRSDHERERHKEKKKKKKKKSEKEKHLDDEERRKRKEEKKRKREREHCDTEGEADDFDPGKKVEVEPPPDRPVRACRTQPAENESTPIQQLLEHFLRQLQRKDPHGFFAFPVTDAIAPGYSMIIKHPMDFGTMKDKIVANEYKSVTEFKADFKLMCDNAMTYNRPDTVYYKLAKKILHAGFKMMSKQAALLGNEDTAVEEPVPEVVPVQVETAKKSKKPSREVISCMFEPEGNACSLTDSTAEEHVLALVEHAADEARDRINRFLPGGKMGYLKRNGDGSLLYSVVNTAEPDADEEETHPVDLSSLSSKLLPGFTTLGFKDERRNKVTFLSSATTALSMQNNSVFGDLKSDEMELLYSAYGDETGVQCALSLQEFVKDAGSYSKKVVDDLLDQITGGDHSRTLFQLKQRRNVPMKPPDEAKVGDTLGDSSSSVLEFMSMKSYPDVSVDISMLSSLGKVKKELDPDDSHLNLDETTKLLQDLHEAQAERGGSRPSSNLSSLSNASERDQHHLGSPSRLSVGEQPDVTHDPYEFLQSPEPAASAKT
Assay: Inhibition of human BRD9 by alpha screen assay

IC50	Structure (SMILES)
2510 nM	CCCOc1ccn2c(C(C)=O)cc(-c3ccccn3)c2c1
501 nM	CC(=O)c1cc(-c2cccc(C)n2)c2cc(N3CCOCC3)ccn12
501 nM	CC(=O)c1cc(-c2ccccn2)c2cc(N3CCOCC3)ccn12

Target: T2, Peregrin (Homo sapiens) (UniProt P55201)
T2 sequence (whole entry): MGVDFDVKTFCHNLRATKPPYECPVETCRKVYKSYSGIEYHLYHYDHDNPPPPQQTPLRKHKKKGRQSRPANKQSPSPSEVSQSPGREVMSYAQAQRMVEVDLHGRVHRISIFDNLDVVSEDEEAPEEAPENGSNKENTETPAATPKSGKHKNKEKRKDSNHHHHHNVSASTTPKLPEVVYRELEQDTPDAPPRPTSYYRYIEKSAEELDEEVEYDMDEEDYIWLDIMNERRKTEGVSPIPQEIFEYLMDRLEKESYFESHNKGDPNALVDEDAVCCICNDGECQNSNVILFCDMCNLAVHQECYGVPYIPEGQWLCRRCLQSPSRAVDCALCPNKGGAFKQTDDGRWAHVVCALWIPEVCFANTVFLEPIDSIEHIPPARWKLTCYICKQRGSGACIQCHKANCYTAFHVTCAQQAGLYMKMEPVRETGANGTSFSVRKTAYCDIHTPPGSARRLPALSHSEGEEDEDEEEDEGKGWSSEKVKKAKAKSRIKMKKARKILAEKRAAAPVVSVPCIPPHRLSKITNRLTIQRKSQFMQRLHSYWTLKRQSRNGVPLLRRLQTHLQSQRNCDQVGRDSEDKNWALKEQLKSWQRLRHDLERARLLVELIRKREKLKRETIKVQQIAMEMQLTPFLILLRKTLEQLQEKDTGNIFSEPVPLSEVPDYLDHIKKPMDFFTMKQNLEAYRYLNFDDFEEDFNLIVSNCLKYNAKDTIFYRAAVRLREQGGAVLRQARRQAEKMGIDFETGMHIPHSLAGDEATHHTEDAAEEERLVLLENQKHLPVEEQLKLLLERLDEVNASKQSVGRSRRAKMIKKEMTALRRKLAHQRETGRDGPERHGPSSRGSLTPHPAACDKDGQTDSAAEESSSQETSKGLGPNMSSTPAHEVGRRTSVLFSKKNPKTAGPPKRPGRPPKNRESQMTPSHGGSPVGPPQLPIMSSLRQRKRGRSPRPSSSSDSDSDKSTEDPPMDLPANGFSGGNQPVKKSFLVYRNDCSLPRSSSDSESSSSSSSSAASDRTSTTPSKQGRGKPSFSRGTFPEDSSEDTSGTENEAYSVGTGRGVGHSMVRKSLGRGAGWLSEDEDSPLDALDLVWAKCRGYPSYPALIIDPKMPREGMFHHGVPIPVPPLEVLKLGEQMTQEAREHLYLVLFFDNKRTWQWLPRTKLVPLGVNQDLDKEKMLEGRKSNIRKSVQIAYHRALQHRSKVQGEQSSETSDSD
Assay: Binding affinity to human BRPF1B assessed as change in melting temperature at 10 uM by differential scanning fluorimetry

ΔTm	Structure (SMILES)
0.2 °C	O=C(c1cc(-c2cccc3nccn23)c2cc(N3CCOCC3)ccn12)C(F)(F)F
2.5 °C	CC(=O)c1cc(-c2ccc(C(F)(F)F)cn2)c2cc(N3CCOCC3)ccn12
0.32 °C	CCCOc1ccn2c(C(C)=O)cc(-c3ccccn3)c2c1
0.48 °C	CC(=O)c1cc(-c2ncc(C)cc2F)c2cc(N3CCOCC3)ccn12
0.26 °C	CN1CCN(c2ccn3c(C(=O)C(F)(F)F)cc(-c4cccc5nccn45)c3c2)CC1
0.22 °C	CC(=O)c1cc(-c2ccc(Cl)cn2)c2cc(N3CCOCC3)ccn12
0.34 °C	CC(=O)c1cc(-c2cccc(Cl)n2)c2cc(N3CCOCC3)ccn12
0.085 °C	CN1CCN(c2ccn3c(C(=O)C4CC4)cc(-c4cccc5nccn45)c3c2)CC1
0.65 °C	CC(=O)c1cc(-c2cccc(C)n2)c2cc(N3CCOCC3)ccn12
3.5 °C	CC(=O)c1cc(-c2cccc3nccn23)c2cc(N3CCN(C)CC3)ccn12
0.04 °C	COC(=O)c1ccnc(-c2cc(C(C)=O)n3ccc(N4CCOCC4)cc23)c1
0.01 °C	CC(=O)c1cc(-c2cc(C(=O)O)ccn2)c2cc(N3CCOCC3)ccn12
0.71 °C	CC(=O)c1cc(-c2ncccc2F)c2cc(N3CCOCC3)ccn12
0.71 °C	CC(C)C(=O)c1cc(-c2cccc3nccn23)c2cc(N3CCN(C)CC3)ccn12
0.18 °C	CCCOc1ccn2c(C(C)=O)cc(-c3cccc(Cl)n3)c2c1
1.3 °C	CC(=O)c1cc(-c2ccccn2)c2cc(N3CCOCC3)ccn12
0.5 °C	CCCCC(=O)c1cc(-c2cccc3nccn23)c2cc(N3CCN(C)CC3)ccn12
0.15 °C	CCC(=O)c1cc(-c2cccc3nccn23)c2cc(N3CCN(C)CC3)ccn12
0.29 °C	CC(=O)c1cc(-c2ncccn2)c2cc(N3CCOCC3)ccn12
0.53 °C	COc1cccc(-c2cc(C(C)=O)n3ccc(N4CCOCC4)cc23)n1
1.7 °C	CC(=O)c1cc(-c2ccccn2)c2cc(N3CCNCC3)ccn12
0.2 °C	CCC(=O)c1cc(-c2cccc3nccn23)c2cc(N3CCOCC3)ccn12
0.04 °C	CC(=O)c1cc(-c2nc3ccccc3s2)c2cc(N3CCOCC3)ccn12
2.3 °C	CC(=O)c1cc(-c2cccc3nccn23)c2cc(N3CCNCC3)ccn12
0.09 °C	CCCOc1ccn2c(C(C)=O)cc(-c3cc(C(=O)OC)ccn3)c2c1

Target: T3, Bromodomain-containing protein 4 (Homo sapiens, UniProt O60885)
Assay: Inhibition of human BRD4 by alpha screen assay

IC50	Structure (SMILES)
≤ 1000 nM	CC(=O)c1cc(-c2cccc3nccn23)c2cc(N3CCN(C)CC3)ccn12

Target: T3, Bromodomain-containing protein 4
Assay: Binding affinity to human BRD4 assessed as change in melting temperature at 10 uM by differential scanning fluorimetry

ΔTm	Structure (SMILES)
-0.4 °C	O=C(c1cc(-c2cccc3nccn23)c2cc(N3CCOCC3)ccn12)C(F)(F)F
-4 °C	CC(=O)c1cc(-c2ccc(C(F)(F)F)cn2)c2cc(N3CCOCC3)ccn12
-0.35 °C	CCCOc1ccn2c(C(C)=O)cc(-c3ccccn3)c2c1
-0.42 °C	CC(=O)c1cc(-c2ncc(C)cc2F)c2cc(N3CCOCC3)ccn12
-0.7 °C	CN1CCN(c2ccn3c(C(=O)C(F)(F)F)cc(-c4cccc5nccn45)c3c2)CC1
-0.39 °C	CC(=O)c1cc(-c2ccc(Cl)cn2)c2cc(N3CCOCC3)ccn12
0.28 °C	CC(=O)c1cc(-c2cccc(Cl)n2)c2cc(N3CCOCC3)ccn12
-0.65 °C	CN1CCN(c2ccn3c(C(=O)C4CC4)cc(-c4cccc5nccn45)c3c2)CC1
1.2 °C	CC(=O)c1cc(-c2cccc(C)n2)c2cc(N3CCOCC3)ccn12
4.1 °C	CC(=O)c1cc(-c2cccc3nccn23)c2cc(N3CCN(C)CC3)ccn12
0.075 °C	COC(=O)c1ccnc(-c2cc(C(C)=O)n3ccc(N4CCOCC4)cc23)c1
-0.24 °C	CC(=O)c1cc(-c2cc(C(=O)O)ccn2)c2cc(N3CCOCC3)ccn12
0.41 °C	CC(=O)c1cc(-c2ncccc2F)c2cc(N3CCOCC3)ccn12
0.19 °C	CC(C)C(=O)c1cc(-c2cccc3nccn23)c2cc(N3CCN(C)CC3)ccn12
-0.6 °C	CCCOc1ccn2c(C(C)=O)cc(-c3cccc(Cl)n3)c2c1
1.9 °C	CC(=O)c1cc(-c2ccccn2)c2cc(N3CCOCC3)ccn12
-0.78 °C	CCCCC(=O)c1cc(-c2cccc3nccn23)c2cc(N3CCN(C)CC3)ccn12
0.51 °C	CCC(=O)c1cc(-c2cccc3nccn23)c2cc(N3CCN(C)CC3)ccn12
0.43 °C	CC(=O)c1cc(-c2ncccn2)c2cc(N3CCOCC3)ccn12
0.82 °C	COc1cccc(-c2cc(C(C)=O)n3ccc(N4CCOCC4)cc23)n1
4 °C	CC(=O)c1cc(-c2ccccn2)c2cc(N3CCNCC3)ccn12
0.98 °C	CCC(=O)c1cc(-c2cccc3nccn23)c2cc(N3CCOCC3)ccn12
0.55 °C	CC(=O)c1cc(-c2nc3ccccc3s2)c2cc(N3CCOCC3)ccn12
2.6 °C	CC(=O)c1cc(-c2cccc3nccn23)c2cc(N3CCNCC3)ccn12
-0.24 °C	CCCOc1ccn2c(C(C)=O)cc(-c3cc(C(=O)OC)ccn3)c2c1

Target: Bromodomain adjacent to zinc finger domain protein 2B (Homo sapiens, UniProt Q9UIF8)
Assay: Inhibition of human BAZ2B by alpha screen assay

Bromodomain adjacent to zinc finger domain protein 2B, sequence (Q9UIF8 whole entry, the tested form may be a part): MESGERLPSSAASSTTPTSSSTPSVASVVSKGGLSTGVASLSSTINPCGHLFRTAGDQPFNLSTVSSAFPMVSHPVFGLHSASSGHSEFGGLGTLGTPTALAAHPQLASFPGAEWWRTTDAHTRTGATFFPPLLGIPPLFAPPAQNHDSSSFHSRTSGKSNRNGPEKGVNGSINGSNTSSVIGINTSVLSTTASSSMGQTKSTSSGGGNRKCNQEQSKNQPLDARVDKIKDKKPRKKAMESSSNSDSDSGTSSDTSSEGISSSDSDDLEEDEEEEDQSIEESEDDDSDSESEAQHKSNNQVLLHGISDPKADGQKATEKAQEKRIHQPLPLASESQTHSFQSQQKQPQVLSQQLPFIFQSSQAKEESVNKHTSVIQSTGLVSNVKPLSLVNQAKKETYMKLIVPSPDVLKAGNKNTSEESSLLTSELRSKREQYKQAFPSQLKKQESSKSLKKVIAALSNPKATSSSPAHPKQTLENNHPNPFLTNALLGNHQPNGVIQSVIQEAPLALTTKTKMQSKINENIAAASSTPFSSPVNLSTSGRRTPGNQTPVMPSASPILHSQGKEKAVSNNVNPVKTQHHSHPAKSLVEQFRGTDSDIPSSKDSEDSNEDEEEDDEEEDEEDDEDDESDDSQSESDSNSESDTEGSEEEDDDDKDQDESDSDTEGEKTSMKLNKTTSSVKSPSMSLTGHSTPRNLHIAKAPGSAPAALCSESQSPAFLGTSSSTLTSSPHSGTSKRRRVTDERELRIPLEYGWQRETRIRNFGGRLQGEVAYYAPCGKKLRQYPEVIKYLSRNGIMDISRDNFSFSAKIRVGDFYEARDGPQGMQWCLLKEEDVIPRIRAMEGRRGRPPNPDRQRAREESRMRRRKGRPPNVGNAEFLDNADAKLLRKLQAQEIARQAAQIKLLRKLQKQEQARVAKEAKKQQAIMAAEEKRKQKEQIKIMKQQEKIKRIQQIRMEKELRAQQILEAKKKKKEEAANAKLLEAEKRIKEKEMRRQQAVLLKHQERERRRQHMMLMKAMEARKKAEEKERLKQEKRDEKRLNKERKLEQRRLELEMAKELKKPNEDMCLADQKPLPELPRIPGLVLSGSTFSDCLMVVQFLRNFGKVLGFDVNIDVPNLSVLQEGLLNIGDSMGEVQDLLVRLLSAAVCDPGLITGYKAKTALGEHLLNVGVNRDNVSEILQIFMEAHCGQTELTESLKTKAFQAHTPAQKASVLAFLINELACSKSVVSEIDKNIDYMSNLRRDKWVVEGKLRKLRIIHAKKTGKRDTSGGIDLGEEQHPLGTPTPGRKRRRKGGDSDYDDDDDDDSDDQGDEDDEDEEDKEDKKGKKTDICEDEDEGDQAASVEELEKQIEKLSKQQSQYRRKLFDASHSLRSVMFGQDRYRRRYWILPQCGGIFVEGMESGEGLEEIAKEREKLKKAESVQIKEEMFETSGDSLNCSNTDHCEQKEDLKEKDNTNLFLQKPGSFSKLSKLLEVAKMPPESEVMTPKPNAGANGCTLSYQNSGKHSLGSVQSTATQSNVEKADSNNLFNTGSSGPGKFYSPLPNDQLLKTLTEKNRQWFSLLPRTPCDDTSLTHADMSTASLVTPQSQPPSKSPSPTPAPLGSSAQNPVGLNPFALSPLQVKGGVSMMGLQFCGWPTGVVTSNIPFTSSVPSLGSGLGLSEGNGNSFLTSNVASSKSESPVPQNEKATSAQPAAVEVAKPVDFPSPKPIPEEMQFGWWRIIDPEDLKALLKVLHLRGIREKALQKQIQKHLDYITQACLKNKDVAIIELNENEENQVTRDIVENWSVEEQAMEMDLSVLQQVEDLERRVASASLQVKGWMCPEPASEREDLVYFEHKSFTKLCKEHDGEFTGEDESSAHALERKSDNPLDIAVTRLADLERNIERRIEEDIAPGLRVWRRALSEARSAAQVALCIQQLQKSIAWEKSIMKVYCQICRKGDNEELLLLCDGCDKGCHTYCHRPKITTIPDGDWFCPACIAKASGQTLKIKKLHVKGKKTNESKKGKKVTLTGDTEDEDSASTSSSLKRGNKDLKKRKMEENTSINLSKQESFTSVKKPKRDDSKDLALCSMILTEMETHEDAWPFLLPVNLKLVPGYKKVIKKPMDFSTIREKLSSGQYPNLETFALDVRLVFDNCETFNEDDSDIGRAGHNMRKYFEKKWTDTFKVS

IC50	Structure (SMILES)
2510 nM	CCCOc1ccn2c(C(C)=O)cc(-c3ccccn3)c2c1
15800 nM	CC(=O)c1cc(-c2cccc(C)n2)c2cc(N3CCOCC3)ccn12
3160 nM	CC(=O)c1cc(-c2ccccn2)c2cc(N3CCOCC3)ccn12

Target: T4, Peregrin (Homo sapiens, UniProt P55201)
T4 sequence (P55201 whole entry): T2 sequence (whole entry)
Assay: Inhibition of human BRPF1B by alpha screen assay

IC50	Structure (SMILES)
≤ 1000 nM	CC(=O)c1cc(-c2cccc3nccn23)c2cc(N3CCN(C)CC3)ccn12

Target: T5, Bromodomain-containing protein 9 (Homo sapiens) (UniProt Q9H8M2)
T5 sequence (whole entry): T1 sequence (Q9H8M2 whole entry)
Assay: Binding affinity to human BRD9 assessed as change in melting temperature at 10 uM by differential scanning fluorimetry

ΔTm	Structure (SMILES)
0.26 °C	O=C(c1cc(-c2cccc3nccn23)c2cc(N3CCOCC3)ccn12)C(F)(F)F
-1.1 °C	CC(=O)c1cc(-c2ccc(C(F)(F)F)cn2)c2cc(N3CCOCC3)ccn12
1.1 °C	CCCOc1ccn2c(C(C)=O)cc(-c3ccccn3)c2c1
-0.28 °C	CC(=O)c1cc(-c2ncc(C)cc2F)c2cc(N3CCOCC3)ccn12
0.3 °C	CN1CCN(c2ccn3c(C(=O)C(F)(F)F)cc(-c4cccc5nccn45)c3c2)CC1
-0.23 °C	CC(=O)c1cc(-c2ccc(Cl)cn2)c2cc(N3CCOCC3)ccn12
0.81 °C	CC(=O)c1cc(-c2cccc(Cl)n2)c2cc(N3CCOCC3)ccn12
0.76 °C	CN1CCN(c2ccn3c(C(=O)C4CC4)cc(-c4cccc5nccn45)c3c2)CC1
4.2 °C	CC(=O)c1cc(-c2cccc(C)n2)c2cc(N3CCOCC3)ccn12
7.5 °C	CC(=O)c1cc(-c2cccc3nccn23)c2cc(N3CCN(C)CC3)ccn12
0.35 °C	COC(=O)c1ccnc(-c2cc(C(C)=O)n3ccc(N4CCOCC4)cc23)c1
-0.06 °C	CC(=O)c1cc(-c2cc(C(=O)O)ccn2)c2cc(N3CCOCC3)ccn12
1.3 °C	CC(=O)c1cc(-c2ncccc2F)c2cc(N3CCOCC3)ccn12
1 °C	CC(C)C(=O)c1cc(-c2cccc3nccn23)c2cc(N3CCN(C)CC3)ccn12
0.085 °C	CCCOc1ccn2c(C(C)=O)cc(-c3cccc(Cl)n3)c2c1
5.7 °C	CC(=O)c1cc(-c2ccccn2)c2cc(N3CCOCC3)ccn12
0.27 °C	CCCCC(=O)c1cc(-c2cccc3nccn23)c2cc(N3CCN(C)CC3)ccn12
1.2 °C	CCC(=O)c1cc(-c2cccc3nccn23)c2cc(N3CCN(C)CC3)ccn12
0.035 °C	CC(=O)c1cc(-c2ncccn2)c2cc(N3CCOCC3)ccn12
1.3 °C	COc1cccc(-c2cc(C(C)=O)n3ccc(N4CCOCC4)cc23)n1
5.7 °C	CC(=O)c1cc(-c2ccccn2)c2cc(N3CCNCC3)ccn12
3 °C	CCC(=O)c1cc(-c2cccc3nccn23)c2cc(N3CCOCC3)ccn12
-0.3 °C	CC(=O)c1cc(-c2nc3ccccc3s2)c2cc(N3CCOCC3)ccn12
5.1 °C	CC(=O)c1cc(-c2cccc3nccn23)c2cc(N3CCNCC3)ccn12
-0.03 °C	CCCOc1ccn2c(C(C)=O)cc(-c3cc(C(=O)OC)ccn3)c2c1
